Data taken from patent US12077503B2, “Substituted cyclic amides and their use as herbicides” (FMC CORPORATION, priority 2015, dated 2024).

Tests used:
Type in all cases: in vivo
[1] = tested on: redroot pigweed (Amaranthus retroflexus); assay: Test G Pre-Emergence Protocol; conditions: Amaranthus retroflexus, pre-emergence, 312 h, evaluated after 13 days; for pest or weed control at 15.625 g/ha: 15.625 g ai/ha; for pest or weed control at 15.625 g/ha / pest or weed control at 250 g/ha: read-out: Pigweed, Redroot damage rating (100=total damage to plant; 0=no damage to plant); for pest or weed control at 62.5 g/ha: 62.5 g ai/ha, 100=total damage to plant, 0=no damage to plant, read-out: plant damage rating, Pigweed, Redroot; for pest or weed control at 250 g/ha: 250 g ai/ha
Outline: (§1)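 Pots of seeds in standard soil were grown for one day in a glasshouse (24/16 °C day/night, 14 h light, 65% humidity), then sprayed with compound in acetone/water 50:50 with 0.5% Tween 20 at 15.625, 62.5 or 250 g/ha. Damage was scored after 13 days on a 0 (none) to 100 (total) scale.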

[2] = tested on: corn (Zea mays); assay: Test G Pre-Emergence Protocol; conditions: Zea mays, pre-emergence, 312 h, evaluated after 13 days; for plant injury at 15.625 g/ha: 15.625 g ai/ha; for plant injury at 15.625 g/ha / plant injury at 250 g/ha: read-out: Corn damage rating (100=total damage to plant; 0=no damage to plant); for plant injury at 62.5 g/ha: 62.5 g ai/ha, 100=total damage to plant, 0=no damage to plant, read-out: plant damage rating, Corn; for plant injury at 250 g/ha: 250 g ai/ha
Outline: as §1

[3] = tested on: barnyardgrass (Echinochloa crus-galli); assay: Test G Pre-Emergence Protocol; conditions: Echinochloa crus-galli, pre-emergence, 312 h, evaluated after 13 days; for pest or weed control at 15.625 g/ha: 15.625 g ai/ha, read-out: Barnyard grass damage rating (100=total damage to plant; 0=no damage to plant); for pest or weed control at 62.5 g/ha: 62.5 g ai/ha, 100=total damage to plant, 0=no damage to plant, read-out: plant damage rating, Barnyardgrass; for pest or weed control at 250 g/ha: 250 g ai/ha, read-out: Barnyardgrass damage rating (100=total damage to plant; 0=no damage to plant)
Outline: as §1

[4] = tested on: giant foxtail (Setaria faberi); assay: Test G Pre-Emergence Protocol; conditions: Setaria faberi, pre-emergence, 312 h, evaluated after 13 days; for pest or weed control at 15.625 g/ha: 15.625 g ai/ha; for pest or weed control at 15.625 g/ha / pest or weed control at 250 g/ha: read-out: Foxtail, Giant damage rating (100=total damage to plant; 0=no damage to plant); for pest or weed control at 62.5 g/ha: 62.5 g ai/ha, 100=total damage to plant, 0=no damage to plant, read-out: plant damage rating, Foxtail, Giant; for pest or weed control at 250 g/ha: 250 g ai/ha
Outline: as §1

[5] = tested on: ivy-leaved morning glory (Ipomoea hederacea); assay: Test G Pre-Emergence Protocol; conditions: Ipomoea, pre-emergence, 312 h, evaluated after 13 days; for pest or weed control at 15.625 g/ha: 15.625 g ai/ha, read-out: Morning-glory, Ivy-leaved damage rating (100=total damage to plant; 0=no damage to plant); for pest or weed control at 62.5 g/ha: 62.5 g ai/ha, 100=total damage to plant, 0=no damage to plant, read-out: plant damage rating, Morningglory, Ivy-leaved; for pest or weed control at 250 g/ha: 250 g ai/ha, read-out: Morningglory, Ivy-leaved damage rating (100=total damage to plant; 0=no damage to plant)
Outline: as §1

[6] = tested on: velvetleaf (Abutilon theophrasti); assay: Test G Pre-Emergence Protocol; conditions: Abutilon theophrasti, pre-emergence, 312 h, evaluated after 13 days; for pest or weed control at 15.625 g/ha: 15.625 g ai/ha; for pest or weed control at 15.625 g/ha / pest or weed control at 250 g/ha: read-out: Velvetleaf damage rating (100=total damage to plant; 0=no damage to plant); for pest or weed control at 62.5 g/ha: 62.5 g ai/ha, 100=total damage to plant, 0=no damage to plant, read-out: plant damage rating, Velvetleaf; for pest or weed control at 250 g/ha: 250 g ai/ha
Outline: as §1

[7] = tested on: redroot pigweed (Amaranthus retroflexus); assay: Test G Post-Emergence Protocol; conditions: Amaranthus retroflexus, post-emergence, 312 h; for pest or weed control at 15.625 g/ha: 15.625 g ai/ha, evaluated after 13 days (100=total damage to plant; 0=no damage to plant), read-out: Pigweed, Redroot damage rating; for pest or weed control at 62.5 g/ha: 62.5 g ai/ha, read-out: Pigweed, Redroot damage rating (100=total damage to plant; 0=no damage to plant); for pest or weed control at 62.5 g/ha / pest or weed control at 250 g/ha: evaluated after 13 days; for pest or weed control at 250 g/ha: 250 g ai/ha, read-out: damage to plant, Pigweed, Redroot (100=total damage to plant; 0=no damage to plant)
Outline: (§2)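 Pot-grown seedlings, 8 days old, raised in a glasshouse at 24/16 °C day/night with 14 h light and 65% humidity, were sprayed post-emergence with test compound in acetone/water (50:50) plus 0.5% Tween 20 at 15.625, 62.5 or 250 g/ha. Damage was scored visually 13 days later on a 0–100 scale (100 = total damage).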

[8] = tested on: corn (Zea mays); assay: Test G Post-Emergence Protocol; conditions: Zea mays, post-emergence, 312 h; for plant injury at 15.625 g/ha: 15.625 g ai/ha, evaluated after 13 days (100=total damage to plant; 0=no damage to plant), read-out: Corn damage rating; for plant injury at 62.5 g/ha: 62.5 g ai/ha, read-out: Corn damage rating (100=total damage to plant; 0=no damage to plant); for plant injury at 62.5 g/ha / plant injury at 250 g/ha: evaluated after 13 days; for plant injury at 250 g/ha: 250 g ai/ha, read-out: damage to plant, Corn (100=total damage to plant; 0=no damage to plant)
Outline: as §2

[9] = tested on: barnyardgrass (Echinochloa crus-galli); assay: Test G Post-Emergence Protocol; conditions: Echinochloa crus-galli, post-emergence, 312 h; for pest or weed control at 15.625 g/ha: 15.625 g ai/ha, evaluated after 13 days (100=total damage to plant; 0=no damage to plant), read-out: Barnyardgrass damage rating; for pest or weed control at 62.5 g/ha: 62.5 g ai/ha, read-out: Barnyardgrass damage rating (100=total damage to plant; 0=no damage to plant); for pest or weed control at 62.5 g/ha / pest or weed control at 250 g/ha: evaluated after 13 days; for pest or weed control at 250 g/ha: 250 g ai/ha, read-out: damage to plant, Barnyardgrass (100=total damage to plant; 0=no damage to plant)
Outline: as §2

[10] = tested on: giant foxtail (Setaria faberi); assay: Test G Post-Emergence Protocol; conditions: Setaria faberi, post-emergence, 312 h; for pest or weed control at 15.625 g/ha: 15.625 g ai/ha, evaluated after 13 days (100=total damage to plant; 0=no damage to plant), read-out: Foxtail, Giant damage rating; for pest or weed control at 62.5 g/ha: 62.5 g ai/ha, read-out: Foxtail, Giant damage rating (100=total damage to plant; 0=no damage to plant); for pest or weed control at 62.5 g/ha / pest or weed control at 250 g/ha: evaluated after 13 days; for pest or weed control at 250 g/ha: 250 g ai/ha, read-out: damage to plant, Foxtail, Giant (100=total damage to plant; 0=no damage to plant)
Outline: as §2

[11] = tested on: ivy-leaved morning glory (Ipomoea hederacea); assay: Test G Post-Emergence Protocol; conditions: Ipomoea, post-emergence, 312 h; for pest or weed control at 15.625 g/ha: 15.625 g ai/ha, evaluated after 13 days (100=total damage to plant; 0=no damage to plant), read-out: Morningglory, Ivy-leaved damage rating; for pest or weed control at 62.5 g/ha: 62.5 g ai/ha, read-out: Morningglory, Ivy-leaved damage rating (100=total damage to plant; 0=no damage to plant); for pest or weed control at 62.5 g/ha / pest or weed control at 250 g/ha: evaluated after 13 days; for pest or weed control at 250 g/ha: 250 g ai/ha, read-out: damage to plant, Morningglory, Ivy-leaved (100=total damage to plant; 0=no damage to plant)
Outline: as §2

[12] = tested on: velvetleaf (Abutilon theophrasti); assay: Test G Post-Emergence Protocol; conditions: Abutilon theophrasti, post-emergence, 312 h; for pest or weed control at 15.625 g/ha: 15.625 g ai/ha, evaluated after 13 days (100=total damage to plant; 0=no damage to plant), read-out: Velvetleaf damage rating; for pest or weed control at 62.5 g/ha: 62.5 g ai/ha, read-out: Velvetleaf damage rating (100=total damage to plant; 0=no damage to plant); for pest or weed control at 62.5 g/ha / pest or weed control at 250 g/ha: evaluated after 13 days; for pest or weed control at 250 g/ha: 250 g ai/ha, read-out: damage to plant, Velvetleaf (100=total damage to plant; 0=no damage to plant)
Outline: as §2

| SMILES | pest or weed control at 15.625 g/ha [1] | pest or weed control at 62.5 g/ha [1] | pest or weed control at 250 g/ha [1] | plant injury at 15.625 g/ha [2] | plant injury at 62.5 g/ha [2] | plant injury at 250 g/ha [2] | pest or weed control at 15.625 g/ha [3] | pest or weed control at 62.5 g/ha [3] | pest or weed control at 250 g/ha [3] | pest or weed control at 15.625 g/ha [4] | pest or weed control at 62.5 g/ha [4] | pest or weed control at 250 g/ha [4] | pest or weed control at 15.625 g/ha [5] | pest or weed control at 62.5 g/ha [5] | pest or weed control at 250 g/ha [5] | pest or weed control at 15.625 g/ha [6] | pest or weed control at 62.5 g/ha [6] | pest or weed control at 250 g/ha [6] | pest or weed control at 15.625 g/ha [7] | pest or weed control at 62.5 g/ha [7] | other results |
| --- | --- | --- | --- | --- | --- | --- | --- | --- | --- | --- | --- | --- | --- | --- | --- | --- | --- | --- | --- | --- | --- |
| C=Cc1ccc([C@H]2CN(C)C(=O)[C@@H]2C(=O)Nc2ccccc2F)cc1 (racemic) [Compound 1457] | 0% | 0% | 0% | 0% | 0% | 0% | 0% | 0% | 50% | 0% | 20% | 90% | 0% | 0% | 0% | 0% | 0% | 0% | 0% | 0% | pest or weed control at 250 g/ha [7]: 0%; plant injury at 15.625 g/ha [8]: 0%; plant injury at 62.5 g/ha [8]: 0%; plant injury at 250 g/ha [8]: 10%; pest or weed control at 15.625 g/ha [9]: 0%; pest or weed control at 62.5 g/ha [9]: 10%; pest or weed control at 250 g/ha [9]: 10%; pest or weed control at 15.625 g/ha [10]: 0%; pest or weed control at 62.5 g/ha [10]: 20%; pest or weed control at 250 g/ha [10]: 50%; pest or weed control at 15.625 g/ha [11]: 0%; pest or weed control at 62.5 g/ha [11]: 0%; pest or weed control at 250 g/ha [11]: 20%; pest or weed control at 15.625 g/ha [12]: 0%; pest or weed control at 62.5 g/ha [12]: 0%; pest or weed control at 250 g/ha [12]: 0% |
| Cc1ccc(NC(=O)[C@H]2C(=O)N(C)C[C@@H]2c2ccc(C(F)(F)F)cc2)c(C)c1 (racemic) [Compound 1410] | 0% | 20% | 10% | 0% | 0% | 0% | 0% | 0% | 20% | 0% | 0% | 80% | 0% | 0% | 10% | 0% | 10% | 20% | 0% | 0% | pest or weed control at 250 g/ha [7]: 10%; plant injury at 15.625 g/ha [8]: 0%; plant injury at 62.5 g/ha [8]: 0%; plant injury at 250 g/ha [8]: 10%; pest or weed control at 15.625 g/ha [9]: 0%; pest or weed control at 62.5 g/ha [9]: 0%; pest or weed control at 250 g/ha [9]: 20%; pest or weed control at 15.625 g/ha [10]: 0%; pest or weed control at 62.5 g/ha [10]: 0%; pest or weed control at 250 g/ha [10]: 50%; pest or weed control at 15.625 g/ha [11]: 0%; pest or weed control at 62.5 g/ha [11]: 0%; pest or weed control at 250 g/ha [11]: 20%; pest or weed control at 15.625 g/ha [12]: 0%; pest or weed control at 62.5 g/ha [12]: 0%; pest or weed control at 250 g/ha [12]: 0% |
